Assay: Analytical results of the Macadamia esters (Table I)
Format: physicochemical
Method: An analysis of the esters was conducted as to appearance, color, surface tension, spreading coefficient, freezing point, percentage of water, refractive index, and specific gravity.

C12-15 Pareth-7 Macadamiate
Spreading Coeffecient (° C.): 31.50
Viscosity (CPS): 100 CPS
Interfacial Tension (25° C.): 8.50
Surface Tension (25° C.): 32.00

Ceteareth-4 Macadamiate
Spreading Coeffecient (° C.): 32.15
Viscosity (CPS): 120 CPS
Interfacial Tension (25° C.): 8.35
Surface Tension (25° C.): 32.50

Isostearyl Macadamiate
Spreading Coeffecient (° C.): 32.75
Viscosity (CPS): 40 CPS
Interfacial Tension (25° C.): 7.75
Surface Tension (25° C.): 31.5

PPG-3 Myristyl Ether Macadamiate
Spreading Coeffecient (° C.): 34.00
Viscosity (CPS): 80 CPS
Interfacial Tension (25° C.): 7.00
Surface Tension (25° C.): 31.0

From US20060210520A1, “Macadamia lipid based surfactants and derivatives and process for preparing same” (Finetex, Inc., priority 2005, published 2006)
